Measurements reported in ChEMBL document CHEMBL1134131, “Discovery of 2,3-diaryl-1,3-thiazolidin-4-ones as potent anti-HIV-1 agents” (Bioorg Med Chem Lett, 2001).

Key:
MT4 [1] = assay: Cytotoxicity to reduce MT-4 cell viability by 50%; assay type: functional; conditions: Homo sapiens
MT4 [2] = assay: Anti-HIV activity to reduce HIV-2-induced cytopathic effect by 50% in MT-4 cells against HIV-2 ROD; assay type: functional, cell-based; conditions: Homo sapiens
MT4 [3] = assay: Evaluated for the inhibition of replication of HIV-1 IIIB or HIV-2 (ROD) in MT-4 cells by using [3H]dGTP radiolabeled substrate; assay type: functional, cell-based; conditions: Homo sapiens
MT4 [4] = assay: Anti-HIV activity to reduce […] cytopathic effect by 50% in MT-4 cells against HIV-1 IIIB; assay type: functional, cell-based; conditions: Homo sapiens
[5] = Selectivity index ([…] ratio)of the compound; assay type: functional
MT4 [6] = assay: Concentration required to reduce HIV-1-induced cytopathic effect by 50% in MT-4 cells against HIV-2 ROD; assay type: functional, cell-based; conditions: Homo sapiens
MT4 [7] = assay: Evaluated for cytotoxicity and the concentration required to reduce MT-4 cell viability by 50% was reported; assay type: functional; conditions: Homo sapiens
MT4 [8] = assay: Concentration required to reduce HIV-1-induced cytopathic effect by 50% in MT-4 cells against HIV-1 IIIB; assay type: functional, cell-based; conditions: Homo sapiens
MT4 [9] = assay: Anti-HIV activity to reduce […] cytopathic effect by 50% in MT-4 cells against HIV-1 IIIB; NA=not active; assay type: functional, cell-based, Homo sapiens
MT4 [10] = assay: Anti-HIV activity to reduce […] cytopathic effect by 50% in MT-4 cells against HIV-1 IIIB; NA= not active; assay type: functional, cell-based, Homo sapiens
MT4 [11] = assay: Compound was evaluated for the inhibition of replication of HIV-1 IIIB or HIV-2 (ROD) in MT-4 cells by using [3H]dGTP radiolabeled substrate; assay type: functional, cell-based; conditions: Homo sapiens
MT4 [12] = assay: Evaluated for the inhibition of replication of HIV-1 IIIB or HIV-2 (ROD) in MT-4 cells by using [3H]-dGTP as the radiolabeled substrate; assay type: functional, cell-based; conditions: Homo sapiens

Row | Compound | CC50 (MT4 [1]) | EC50 (MT4 [2]) | EC50 (MT4 [4]) | further results
1 | Cc1cccc(N2C(=O)CSC2c2c(Cl)cccc2Cl)n1 (stereo not drawn) | 285 µM | 285 µM | 0.044 µM | IC50 (MT4 [3]): 2.24 µM
2 | Cc1ccnc(N2C(=O)CSC2c2c(F)cccc2F)c1 (stereo not drawn) | 242 µM | > 242 µM | 0.248 µM | Ratio [5]: 976; IC50 (MT4 [3]): 2.84 µM
3 | O=C1CSC(c2c(Cl)cccc2Cl)N1c1ccccn1 (stereo not drawn) | 38.5 µM | > 38.5 µM | 0.178 µM | –
4 | O=C1CSC(c2c(F)cccc2F)N1c1cccnc1 (stereo not drawn) | > 427 µM | > 427 µM | 95.1 µM | –
5 | Cc1cccnc1N1C(=O)CSC1c1c(F)cccc1F (stereo not drawn) | > 319 µM | > 270 µM | 53.5 µM | –
6 | Clc1cccc(Cl)c1C1SCc2nc3ccccc3n21 (stereo not drawn) | 9.43 µM | – | 0.589 µM | –
7 | O=C1CSC(c2c(Cl)cccc2Cl)N1c1ccccc1 (stereo not drawn) | 38.1 µM | > 39 µM | 0.401 µM | –
8 | O=C1CSC(c2c(F)cccc2F)N1c1ccccc1 (stereo not drawn) | – | – | – | EC50 (MT4 [6]): > 429 µM; CC50 (MT4 [7]): > 429 µM; EC50 (MT4 [8]): 2.3 µM
9 | Cc1cccnc1N1C(=O)CSC1c1c(Cl)cccc1Cl (stereo not drawn) | 42.6 µM | > 31.5 µM | – | EC50 (MT4 [9]): Not Active
10 | O=C1CSC(c2c(Cl)cccc2Cl)N1c1cccnc1 (stereo not drawn) | 23.4 µM | – | > 23 µM | EC50 (MT4 [10]): Not Active
11 | Cc1cccc(N2C(=O)CSC2c2c(F)cccc2F)n1 (stereo not drawn) | 126 µM | > 126 µM | 0.082 µM | IC50 (MT4 [11]): 2.9 µM
12 | Cc1ccc(N2C(=O)CSC2c2c(F)cccc2F)nc1 (stereo not drawn) | 202 µM | > 171 µM | 5.13 µM | –
13 | Cc1ccnc(N2C(=O)CSC2c2c(Cl)cccc2Cl)c1 (stereo not drawn) | > 368 µM | > 368 µM | 0.147 µM | –
14 | Fc1cccc(F)c1C1SCc2nc3ccccc3n21 (stereo not drawn) [THIAZOLOBENZIMIDAZOLE] | 19.2 µM | – | 0.352 µM | IC50 (MT4 [12]): 14.6 µM
15 | O=C1CSC(c2c(F)cccc2F)N1c1ccccn1 (stereo not drawn) | > 427 µM | > 427 µM | 0.855 µM | –
